Source: ChEMBL document CHEMBL1268989, “Design, syntheses, and SAR of 2,8-diazaspiro[4.5]decanones as T-type calcium channel antagonists” (Bioorg Med Chem Lett, 2010)
Values belong to the molecule of their own block, whether it stands above or below them. Active and inactive are the calls of the source. No cut-off for these calls is given here.

How the values were obtained:
[1] = target: Voltage-dependent T-type calcium channel subunit alpha-1H (Homo sapiens) (UniProt O95180); assay: Antagonist activity against T-type calcium channel subunit alpha-1H assessed as inactivation of channel current at 1 uM by cell based patch clamp assay; assay type: functional
[2] = target: Voltage-dependent T-type calcium channel subunit alpha-1H (Homo sapiens) (UniProt O95180); assay: Antagonist activity against T-type calcium channel subunit alpha-1H assessed as inactivation of channel current at 0.3 uM by cell based patch clamp assay; assay type: functional
[3] = target: Voltage-dependent L-type calcium channel subunit alpha-1C (Homo sapiens) (UniProt Q13936); assay: Antagonist activity against L-type calcium channel subunit alpha-1C assessed as inactivation of channel current at 0.3 uM by cell based patch clamp assay
[4] = target: Voltage-dependent T-type calcium channel subunit alpha-1H (Homo sapiens) (UniProt O95180); assay: Antagonist activity against T-type calcium channel subunit alpha-1H assessed as inactivation of channel current at 0.03 uM by cell based patch clamp assay; assay type: functional
[5] = target: Voltage-dependent L-type calcium channel subunit alpha-1C (Homo sapiens) (UniProt Q13936); assay: Antagonist activity against L-type calcium channel subunit alpha-1C assessed as inactivation of channel current at 0.1 uM by cell based patch clamp assay
[6] = target: Voltage-dependent T-type calcium channel subunit alpha-1H (Homo sapiens) (UniProt O95180); assay: Antagonist activity against T-type calcium channel subunit alpha-1H assessed as inactivation of channel current at 0.1 uM by cell based patch clamp assay; assay type: functional
[7] = target: Voltage-dependent L-type calcium channel subunit alpha-1C (Homo sapiens) (UniProt Q13936); assay: Antagonist activity against L-type calcium channel subunit alpha-1C assessed as inactivation of channel current at 3 uM by cell based patch clamp assay
[8] = target: Voltage-dependent T-type calcium channel subunit alpha-1H (Homo sapiens) (UniProt O95180); assay: Antagonist activity against T-type calcium channel subunit alpha-1H assessed as inactivation of channel current at 3 uM by cell based patch clamp assay; assay type: functional
[9] = Selectivity for T-type calcium channel subunit alpha-1H over L-type calcium channel subunit alpha-1C
[10] = target: Voltage-dependent L-type calcium channel subunit alpha-1C (Homo sapiens) (UniProt Q13936); assay: Antagonist activity against L-type calcium channel subunit alpha-1C assessed as inactivation of channel current at 10 uM by cell based patch clamp assay

Sequence of Voltage-dependent T-type calcium channel subunit alpha-1H (Homo sapiens) (O95180 whole entry): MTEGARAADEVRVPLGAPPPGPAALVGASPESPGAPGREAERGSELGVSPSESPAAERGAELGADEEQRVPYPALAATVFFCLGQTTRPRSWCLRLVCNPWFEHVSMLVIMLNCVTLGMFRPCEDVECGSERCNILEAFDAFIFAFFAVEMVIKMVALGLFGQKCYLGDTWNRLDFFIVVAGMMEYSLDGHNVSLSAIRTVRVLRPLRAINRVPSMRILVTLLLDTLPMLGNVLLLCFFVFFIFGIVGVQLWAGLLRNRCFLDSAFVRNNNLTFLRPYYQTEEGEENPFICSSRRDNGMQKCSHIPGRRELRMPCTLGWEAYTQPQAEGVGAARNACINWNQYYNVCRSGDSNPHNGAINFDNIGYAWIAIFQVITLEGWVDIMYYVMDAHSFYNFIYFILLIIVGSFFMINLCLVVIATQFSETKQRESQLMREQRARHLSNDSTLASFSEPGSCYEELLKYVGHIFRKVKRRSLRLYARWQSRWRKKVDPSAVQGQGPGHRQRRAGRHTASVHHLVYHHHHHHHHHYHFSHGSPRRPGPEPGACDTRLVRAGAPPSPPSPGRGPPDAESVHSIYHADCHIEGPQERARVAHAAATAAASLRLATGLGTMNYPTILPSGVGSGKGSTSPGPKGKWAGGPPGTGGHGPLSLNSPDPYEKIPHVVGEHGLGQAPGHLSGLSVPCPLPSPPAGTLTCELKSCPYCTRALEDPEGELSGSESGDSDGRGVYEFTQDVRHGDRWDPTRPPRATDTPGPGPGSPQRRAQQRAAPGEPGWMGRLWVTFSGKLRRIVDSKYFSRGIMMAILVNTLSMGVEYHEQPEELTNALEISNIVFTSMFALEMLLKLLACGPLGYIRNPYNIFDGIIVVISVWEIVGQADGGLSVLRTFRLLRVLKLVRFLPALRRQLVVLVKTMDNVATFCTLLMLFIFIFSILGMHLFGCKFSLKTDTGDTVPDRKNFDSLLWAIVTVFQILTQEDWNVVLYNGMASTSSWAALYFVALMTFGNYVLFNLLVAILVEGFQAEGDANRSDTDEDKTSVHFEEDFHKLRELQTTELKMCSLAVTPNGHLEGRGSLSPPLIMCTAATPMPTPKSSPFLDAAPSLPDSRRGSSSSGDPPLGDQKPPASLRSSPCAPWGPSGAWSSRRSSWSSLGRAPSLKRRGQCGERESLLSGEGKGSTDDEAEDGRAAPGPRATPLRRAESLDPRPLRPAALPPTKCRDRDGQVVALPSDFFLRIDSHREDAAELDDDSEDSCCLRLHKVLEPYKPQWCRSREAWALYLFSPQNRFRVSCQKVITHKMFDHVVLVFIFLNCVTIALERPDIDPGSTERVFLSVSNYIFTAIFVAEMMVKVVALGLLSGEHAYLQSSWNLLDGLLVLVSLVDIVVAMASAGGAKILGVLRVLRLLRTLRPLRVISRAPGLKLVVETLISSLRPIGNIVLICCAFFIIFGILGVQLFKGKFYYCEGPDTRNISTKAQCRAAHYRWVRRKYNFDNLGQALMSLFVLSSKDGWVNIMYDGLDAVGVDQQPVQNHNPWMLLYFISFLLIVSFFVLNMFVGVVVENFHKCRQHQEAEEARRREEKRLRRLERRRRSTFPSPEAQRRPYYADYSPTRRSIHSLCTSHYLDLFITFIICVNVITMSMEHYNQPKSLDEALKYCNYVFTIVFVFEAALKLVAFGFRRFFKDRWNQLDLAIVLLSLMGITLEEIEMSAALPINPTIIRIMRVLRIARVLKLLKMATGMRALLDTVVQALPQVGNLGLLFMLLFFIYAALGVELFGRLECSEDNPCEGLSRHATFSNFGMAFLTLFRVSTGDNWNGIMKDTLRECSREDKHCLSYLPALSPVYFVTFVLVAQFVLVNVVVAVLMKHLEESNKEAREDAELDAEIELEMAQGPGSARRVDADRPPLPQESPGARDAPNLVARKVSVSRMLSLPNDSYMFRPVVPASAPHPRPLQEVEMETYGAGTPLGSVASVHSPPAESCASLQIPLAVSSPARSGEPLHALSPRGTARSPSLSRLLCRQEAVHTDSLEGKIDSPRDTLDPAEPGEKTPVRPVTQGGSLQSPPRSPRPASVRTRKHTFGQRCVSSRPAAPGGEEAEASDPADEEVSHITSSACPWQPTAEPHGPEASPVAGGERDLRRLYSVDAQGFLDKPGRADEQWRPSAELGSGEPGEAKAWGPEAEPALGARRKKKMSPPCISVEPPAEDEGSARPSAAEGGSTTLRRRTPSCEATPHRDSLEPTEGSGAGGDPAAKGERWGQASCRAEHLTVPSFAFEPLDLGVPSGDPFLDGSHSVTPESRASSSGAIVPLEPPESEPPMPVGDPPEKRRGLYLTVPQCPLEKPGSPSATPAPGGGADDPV
Sequence of Voltage-dependent L-type calcium channel subunit alpha-1C (Homo sapiens) (Q13936 whole entry, looked up): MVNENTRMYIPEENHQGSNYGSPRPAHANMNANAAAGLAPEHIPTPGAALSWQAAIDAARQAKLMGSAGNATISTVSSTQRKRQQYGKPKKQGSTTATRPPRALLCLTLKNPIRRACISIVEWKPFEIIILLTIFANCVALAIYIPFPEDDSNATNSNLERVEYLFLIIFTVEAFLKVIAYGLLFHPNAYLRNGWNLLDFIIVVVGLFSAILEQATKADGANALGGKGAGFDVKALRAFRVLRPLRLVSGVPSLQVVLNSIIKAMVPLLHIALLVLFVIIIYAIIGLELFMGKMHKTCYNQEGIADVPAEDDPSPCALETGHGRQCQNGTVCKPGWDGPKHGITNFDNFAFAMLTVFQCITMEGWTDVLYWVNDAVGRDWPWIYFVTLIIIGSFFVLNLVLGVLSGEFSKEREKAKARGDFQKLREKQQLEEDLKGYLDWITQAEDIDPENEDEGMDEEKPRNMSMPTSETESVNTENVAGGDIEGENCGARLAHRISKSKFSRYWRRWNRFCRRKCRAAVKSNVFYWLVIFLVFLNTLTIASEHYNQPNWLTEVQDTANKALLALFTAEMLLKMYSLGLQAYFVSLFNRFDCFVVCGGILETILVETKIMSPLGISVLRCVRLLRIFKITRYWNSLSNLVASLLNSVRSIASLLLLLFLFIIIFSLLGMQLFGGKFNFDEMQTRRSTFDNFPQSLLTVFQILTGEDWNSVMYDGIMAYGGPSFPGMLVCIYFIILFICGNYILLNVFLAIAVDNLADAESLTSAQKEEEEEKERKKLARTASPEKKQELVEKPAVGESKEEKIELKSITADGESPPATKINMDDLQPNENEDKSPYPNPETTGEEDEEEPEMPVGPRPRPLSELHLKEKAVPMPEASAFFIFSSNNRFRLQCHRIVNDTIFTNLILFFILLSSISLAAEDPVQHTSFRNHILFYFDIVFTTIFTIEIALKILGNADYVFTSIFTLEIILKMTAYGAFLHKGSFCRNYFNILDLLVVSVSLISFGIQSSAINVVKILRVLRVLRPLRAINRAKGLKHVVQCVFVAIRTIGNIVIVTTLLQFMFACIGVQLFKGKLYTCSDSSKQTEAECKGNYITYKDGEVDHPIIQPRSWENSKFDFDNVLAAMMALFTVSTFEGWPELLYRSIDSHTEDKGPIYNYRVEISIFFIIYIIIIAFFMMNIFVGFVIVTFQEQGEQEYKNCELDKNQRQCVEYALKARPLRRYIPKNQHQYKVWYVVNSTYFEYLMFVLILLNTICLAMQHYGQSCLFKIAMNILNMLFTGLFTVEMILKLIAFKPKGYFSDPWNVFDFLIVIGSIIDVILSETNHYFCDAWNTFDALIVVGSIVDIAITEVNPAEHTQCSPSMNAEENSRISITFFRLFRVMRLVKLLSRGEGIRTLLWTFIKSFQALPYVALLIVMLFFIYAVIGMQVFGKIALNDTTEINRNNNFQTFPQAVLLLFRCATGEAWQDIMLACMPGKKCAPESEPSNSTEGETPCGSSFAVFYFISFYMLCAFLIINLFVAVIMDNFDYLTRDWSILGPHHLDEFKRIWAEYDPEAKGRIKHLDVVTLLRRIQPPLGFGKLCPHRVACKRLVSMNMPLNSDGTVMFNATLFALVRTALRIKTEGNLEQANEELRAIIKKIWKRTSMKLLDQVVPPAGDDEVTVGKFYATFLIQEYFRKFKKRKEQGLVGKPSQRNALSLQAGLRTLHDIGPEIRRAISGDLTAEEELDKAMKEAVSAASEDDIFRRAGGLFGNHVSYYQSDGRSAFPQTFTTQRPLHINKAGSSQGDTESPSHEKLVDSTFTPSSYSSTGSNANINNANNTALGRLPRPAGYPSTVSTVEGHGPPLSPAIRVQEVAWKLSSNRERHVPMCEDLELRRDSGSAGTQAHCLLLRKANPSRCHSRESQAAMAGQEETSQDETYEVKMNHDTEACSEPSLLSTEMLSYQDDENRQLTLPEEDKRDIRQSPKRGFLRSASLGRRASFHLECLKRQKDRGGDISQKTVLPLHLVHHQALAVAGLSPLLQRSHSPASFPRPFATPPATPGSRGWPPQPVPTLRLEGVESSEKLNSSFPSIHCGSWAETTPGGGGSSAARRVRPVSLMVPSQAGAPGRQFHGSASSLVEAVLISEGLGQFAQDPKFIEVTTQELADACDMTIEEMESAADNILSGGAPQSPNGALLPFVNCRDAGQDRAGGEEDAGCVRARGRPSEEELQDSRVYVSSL

inhibition [1]: 66%
Structure (SMILES): Fc1ccc(C(c2ccc(F)cc2)N2CCC3(CCN(Cc4ccc(Cl)cc4)C3)CC2)cc1

inhibition [4]: 30%
Structure (SMILES): O=C1N(CCc2ccc(Cl)cc2)CCC12CCN(C(c1ccc(F)cc1)c1ccc(F)cc1)CC2

inhibition [1]: 68%
inhibition [5]: 42%
Structure (SMILES): O=C1CC2(CCN(C(c3ccc(F)cc3)c3ccc(F)cc3)CC2)CN1Cc1ccc(Cl)cc1

inhibition [2]: 59%
inhibition [5]: 44%
Structure (SMILES): O=C(c1ccc(Cl)cc1)N1CCC2(CCN(C(c3ccc(F)cc3)c3ccc(F)cc3)CC2)C1

inhibition [6]: 59%
Structure (SMILES): O=C1N(Cc2ccc(Cl)cc2)CCC12CCN(CC(c1ccc(F)cc1)c1ccc(F)cc1)CC2

inhibition [8]: 57%
inhibition [7]: 52%
Structure (SMILES): CC(C)N1CCC2(CCN(C(c3ccc(F)cc3)c3ccc(F)cc3)CC2)C1=O

inhibition [1]: 28%
Structure (SMILES): COCCN1CCC2(CCN(C(c3ccc(F)cc3)c3ccc(F)cc3)CC2)C1=O

Ratio IC50 [9]: 10
inhibition [4]: 58%
inhibition [5]: 31%
Structure (SMILES): O=C1N(Cc2ccc(Cl)cc2)CCC12CCN(C(c1ccc(F)cc1)c1ccc(F)cc1)CC2

Ratio IC50 [9]: 8
inhibition [4]: 52%
inhibition [3]: 67%
Structure (SMILES): COc1cccc(CN2CCC3(CCN(C(c4ccc(F)cc4)c4ccc(F)cc4)CC3)C2=O)c1

inhibition [8]: < 20%
inhibition [1]: inactive
Structure (SMILES): O=C1NCCC12CCN(C(c1ccc(F)cc1)c1ccc(F)cc1)CC2

inhibition [4]: < 20%
inhibition [2]: 91%
Structure (SMILES): O=C1N(Cc2cccc(Cl)c2)CCC12CCN(C(c1ccc(F)cc1)c1ccc(F)cc1)CC2

Second part, the molecule before the results:

Structure (SMILES): CC(C)(C)CCN1CCC2(CCN(C(c3ccc(F)cc3)c3ccc(F)cc3)CC2)C1=O
inhibition [2]: 44%
inhibition [3]: 60%

Structure (SMILES): CC(C)OCCCN1CCC2(CCN(C(c3ccc(F)cc3)c3ccc(F)cc3)CC2)C1=O
inhibition [1]: 76%
inhibition [7]: 56%

Structure (SMILES): CCOc1ccccc1CN1CCC2(CC1)CCN(Cc1ccc(Cl)cc1)C2=O
inhibition [8]: 67%

Structure (SMILES): CC(C)C(C(C)C)N1CCC2(CCN(Cc3ccc(Cl)cc3)C2=O)CC1
inhibition [2]: 40%

Structure (SMILES): O=C(c1ccc(F)cc1)N1CCC2(CC1)CCN(Cc1ccc(Cl)cc1)C2=O
inhibition [1]: < 20%

Structure (SMILES): O=C1N(Cc2ccc(Cl)cc2)CCC12CCN(Cc1ccc(F)cc1)CC2
inhibition [8]: 65%
inhibition [7]: 59%

Structure (SMILES): O=C1N(CCCN2CCOCC2)CCC12CCN(C(c1ccc(F)cc1)c1ccc(F)cc1)CC2
inhibition [1]: 35%

Structure (SMILES): O=C1N(Cc2ccc(Cl)cc2)CCC12CCNCC2
inhibition [8]: < 20%

Structure (SMILES): O=C1N(Cc2ccc(Cl)cc2)CCC12CCN(Cc1cccc(Oc3ccccc3)c1)CC2
inhibition [2]: 56%

Structure (SMILES): COCCCN1CCC2(CCN(C(c3ccc(F)cc3)c3ccc(F)cc3)CC2)C1=O
inhibition [1]: 44%
inhibition [10]: 58%

Structure (SMILES): O=C1N(Cc2ccc(Cl)cc2)CCC12CCN(S(=O)(=O)c1ccc(F)cc1)CC2
inhibition [8]: 45%
inhibition [7]: 54%
